Laboratory results published in ChEMBL document CHEMBL1145316, “Synthesis of novel tricyclic oxazolidinones by a tandem SN2 and SNAr reaction: SAR studies on conformationally constrained analogues of Linezolid” (2006).
Values after ≈ are worked out from the molar mass of the structure shown.

Tests used:
Type in all cases: functional
[1] = test system: Enterococcus faecalis; test: Antibacterial activity against vancomycin-sensitive Enterococcus faecalis ATCC 29212
[2] = test system: Enterococcus faecium; test: Antibacterial activity against vancomycin-resistant Enterococcus faecium ATCC 12202
[3] = test system: Enterococcus faecalis; test: Antibacterial activity against vancomycin-resistant Enterococcus faecalis NCTC 12201
[4] = test system: Staphylococcus aureus; test: Antibacterial activity against methicillin-resistant Staphylococcus aureus ATCC 33591
[5] = test system: Staphylococcus aureus; test: Antibacterial activity against Staphylococcus aureus ATCC 29213
[6] = test system: Staphylococcus aureus; test: Antibacterial activity against Staphylococcus aureus ATCC 49951

| SMILES | MIC [1] [µg/mL] | MIC [2] [µg/mL] | MIC [3] [µg/mL] | MIC [4] [µg/mL] | MIC [5] [µg/mL] | MIC [6] [µg/mL] |
| --- | --- | --- | --- | --- | --- | --- |
| CC(=O)NC[C@H]1CN(c2ccc3c(c2)OC[C@@H]2CCCN32)C(=O)O1 | 16 (≈ 48.3 µM) | 16 (≈ 48.3 µM) | 16 (≈ 48.3 µM) | 4 (≈ 12.1 µM) | 8 (≈ 24.1 µM) | 4 (≈ 12.1 µM) |
| COC(=S)NC[C@H]1CN(c2cc(F)c3c(c2)N(C)C[C@@H]2CCCN32)C(=O)O1 | > 32 | 32 (≈ 81.1 µM) | > 32 | > 32 | > 32 | > 32 |
| CC(=O)NC[C@H]1CN(c2ccc3c(c2)SC[C@@H]2CCCN32)C(=O)O1 | 8 (≈ 23 µM) | 8 (≈ 23 µM) | 8 (≈ 23 µM) | 8 (≈ 23 µM) | 8 (≈ 23 µM) | 8 (≈ 23 µM) |
| CC(=O)NC[C@H]1CN(c2ccc3c(c2)N(C=O)C[C@@H]2CCCN32)C(=O)O1 | > 256 | > 256 | > 256 | > 256 | > 256 | > 256 |
| CC(=O)NC[C@H]1CN(c2ccc3c(c2)S(=O)(=O)C[C@@H]2CCCN32)C(=O)O1 | > 32 | > 32 | > 32 | > 32 | > 32 | > 32 |
| CC(=O)NC[C@H]1CN(c2cc(F)c3c(c2)SC[C@@H]2CCCN32)C(=O)O1 | 2 (≈ 5.47 µM) | 2 (≈ 5.47 µM) | 1 (≈ 2.74 µM) | 1 (≈ 2.74 µM) | 2 (≈ 5.47 µM) | 1 (≈ 2.74 µM) |
| C/C(S)=N/C[C@H]1CN(c2cc(F)c3c(c2)SC[C@@H]2CCCN32)C(=O)O1 | 0.5 (≈ 1.31 µM) | 0.25 (≈ 0.655 µM) | 0.25 (≈ 0.655 µM) | 0.25 (≈ 0.655 µM) | 0.5 (≈ 1.31 µM) | 0.5 (≈ 1.31 µM) |
| CC(=O)NC[C@H]1CN(c2ccc3c(c2)N(C(=O)OCc2ccccc2)C[C@@H]2CCCN32)C(=O)O1 | > 32 | > 32 | > 32 | > 32 | > 32 | > 32 |
| CC(=O)NC[C@H]1CN(c2ccc3c(c2)N(C(=O)CCl)C[C@@H]2CCCN32)C(=O)O1 | > 256 | > 256 | > 256 | > 256 | > 256 | > 256 |
| COC(=S)NC[C@H]1CN(c2ccc3c(c2)SC[C@@H]2CCCN32)C(=O)O1 | 0.25 (≈ 0.659 µM) | 0.5 (≈ 1.32 µM) | 0.25 (≈ 0.659 µM) | 0.25 (≈ 0.659 µM) | 0.5 (≈ 1.32 µM) | 1 (≈ 2.63 µM) |
| CNC(=S)NC[C@H]1CN(c2cc(F)c3c(c2)SC[C@@H]2CCCN32)C(=O)O1 | 1 (≈ 2.52 µM) | 1 (≈ 2.52 µM) | 0.5 (≈ 1.26 µM) | 0.5 (≈ 1.26 µM) | 2 (≈ 5.04 µM) | 0.5 (≈ 1.26 µM) |
| CC(=O)NC[C@H]1CN(c2cc(F)c3c(c2)N(C)C[C@@H]2CCCN32)C(=O)O1 | > 32 | 32 (≈ 88.3 µM) | > 32 | > 32 | > 32 | > 32 |
| CC(=O)NC[C@H]1CN(c2ccc3c(c2)N(C(C)=O)C[C@@H]2CCCN32)C(=O)O1 | > 256 | > 256 | > 256 | > 256 | > 256 | > 256 |
| COC(=S)NC[C@H]1CN(c2cc(F)c3c(c2)SC[C@@H]2CCCN32)C(=O)O1 | 1 (≈ 2.52 µM) | 0.5 (≈ 1.26 µM) | 0.5 (≈ 1.26 µM) | 0.5 (≈ 1.26 µM) | 1 (≈ 2.52 µM) | 1 (≈ 2.52 µM) |
| CC(=O)NC[C@H]1CN(c2ccc(N3CCOCC3)c(F)c2)C(=O)O1 [LINEZOLID] | – | 2 (≈ 5.93 µM) | – | 1 (≈ 2.96 µM) | – | – |
| CN[C@H](CC(C)C)C(=O)N[C@H]1C(=O)N[C@@H](CC(N)=O)C(=O)N[C@H]2C(=O)N[C@H]3C(=O)N[C@H](C(=O)N[C@H](C(=O)O)c4cc(O)cc(O)c4-c4cc3ccc4O)[C@H](O)c3ccc(c(Cl)c3)Oc3cc2cc(c3O[C@@H]2O[C@H](CO)[C@@H](O)[C@H](O)[C@H]2O[C@H]2C[C@](C)(N)[C@H](O)[C@H](C)O2)Oc2ccc(cc2Cl)[C@H]1O [VANCOMYCIN] | 2 (≈ 1.38 µM) | > 32 | > 32 | – | – | – |
